Assay results from ChEMBL document CHEMBL1136600, “Functional expression and characterization of EryA, the erythritol kinase of Brucella abortus, and enzymatic synthesis of L-erythritol-4-phosphate” (Bioorg Med Chem Lett, 2003).

Experiments:
[1] = Inhibition of 4-diphosphocytidyl-2-C-methyl-d-erythritol (CDP-ME) synthase
[2] = test system: Propionibacterium acidipropionici; test: Kinetic parameters against EryA, erythritol kinase from Propionibacterium pentosaceum
Brucella abortus = test: Kinetic parameter against EryA, erythritol kinase of brucella abortus expressed in Escherichia coli

Structure (SMILES) | IC50 [1] [mM] | Km [2] [µM] | Km (Brucella abortus) [mM] | k cat (Brucella abortus) [s⁻¹]
C[C@@](O)(CO)[C@@H](O)COP(=O)(O)O | 1.36 | – | – | –
OC[C@@H](O)[C@@H](O)CO | – | 880 | 0.26 | 230
Nc1ncnc2c1ncn2[C@@H]1O[C@H](COP(=O)(O)OP(=O)(O)OP(=O)(O)O)[C@@H](O)[C@H]1O | – | 4800 | 9.8 | 230
